Results as given in publication PMC8124774, “Tuning Anti-Biofilm Activity of Manganese(II) Complexes: Linking Biological Effectiveness of Heteroaromatic Complexes of Alcohol, Aldehyde, Ketone, and Carboxylic Acid with Structural Effects and Redox Activity” (International Journal of Molecular Sciences, 2021).
“And” between values parts separate entries of the source, which are not always exact repeats. Equal entries are not always repeated.

Tests used:
[1] = tested on: Escherichia coli ATCC 8739; assay: broth microdilution MIC, E. coli; type: cell-based; settings: planktonic cells
Description: (§1) The antimicrobial activities of the heteroaromatic ligands, Mn(II) complexes, and commercially available drug streptomycin were tested against standard bacterial strains: Staphylococcus aureus ATCC 6538P, Escherichia coli ATCC 8739, Pseudomonas aeruginosa PAO1 (biofilm model strain), and Pseudomonas aeruginosa LES B58 (clinical isolate). The P. aeruginosa PAO1 and LES B58 isolates were derived from the International Pseudomonas aeruginosa Reference Panel (http://bccm.belspo.be/about-us/bccm-lmg, accessed on 30 March 2021).
(§2) All bacteria species were cultivated in trypticase soy broth (TSB) medium (Biocorp, Warsaw, Poland) for 18 h at 37 °C with shaking (160 rpm). Overnight cultures of bacteria were diluted 1:100 into fresh TSB medium and then placed in each of the 96 wells of a microtiter transparent plate (Greiner, Monroe, NC, USA). The manganese(II) complexes—[Mn-pyOH-SO4]n, Mn-imCHO-NO3, Mn-imCHO-Cl, Mn-dipyCO-NO3—and the ligands—pyOH, pyCOOH—were prepared by dissolving compounds in distilled water. […] The starting stock solution was of 2-mM concentration.
(§3) The quantitative assay of the antibacterial activity was performed by the broth microdilution method, in 96-well microtiter plates, in order to establish the minimum inhibitory concentration (MIC). To this purpose, serial two-fold dilutions of the compounds ranging between 1 and 0.0625 mM were made. The details of the experiment were presented in our previous paper.

[2] = tested on: Pseudomonas aeruginosa PAO1; assay: broth microdilution MIC, P. aeruginosa PAO1; type: cell-based; settings: P. aeruginosa PAO1, planktonic cells
Description: as §1, §2, §3

[3] = tested on: Pseudomonas aeruginosa LES B58; assay: broth microdilution MIC, P. aeruginosa LES B58; type: cell-based; settings: P. aeruginosa LES B58, planktonic cells
Description: as §1, §2, §3

[4] = tested on: P. aeruginosa PAO1 biofilm; assay: LIVE/DEAD fluorescence assay of biofilm (epifluorescence microscopy); type: cell-based, Pseudomonas aeruginosa; settings: 0.5 mM, 24 h
Description: The effect of the manganese complexes (the concentration of 0.5 mM) on the cell viability of P. aeruginosa in the biofilm layers using the LIVE/DEAD fluorescence assay was also assessed. The mixture of two fluorescent dyes, the dye SYTO-9, and the propidium iodide (included in the FilmTracer™ LIVE/DEAD Biofilm Viability Kit) was used to distinguish live and dead cells. The SYTO-9 can penetrate most membranes freely and is used for assessing total cell counts. In contrast, propidium iodide penetrates cells with compromised membranes, differentiating the damaged bacterial cells from a metabolic active, live cells. As a result, microorganisms with intact cell membranes stain fluorescent green, whereas microorganisms with damaged membranes stain fluorescent red. […] The presence of compounds in the culture caused the aggregation of cells into microcolonies, which was not observed in the control. This observation proves that bacteria were trying to protect themselves against the effect of the complexes tested.
Fluorescence microscopy was used to image live/dead cells in the P. aeruginosa PAO1 biofilm. First, the overnight culture of bacteria was diluted with fresh TSB medium (1:100). […]

[5] = tested on: primary human fibroblasts (VH10); assay: cytotoxicity, MTT test; type: cell-based; settings: VH10 cells, 24 h, 15–1000 µM
Description: Primary human fibroblasts (VH10) were cultured at 37 °C in a humidified 5% CO2 atmosphere in plastic dishes in Dulbecco’s modified eagle medium (DMEM) supplemented with 10% heat inactivated fetal calf serum, 2 mM of l-glutamine, and antibiotics (100 units/mL penicillin and 100 µg/mL streptomycin). Cytotoxic properties of manganese complexes were measured by EZcount^TM MTT cell assay kit (HiMedia Laboratories Pvt., Ltd., Mumbai, India) in accordance with the manufacturer’s instructions. Cells were seeded into a 96-well plate and incubated with manganese complexes in the concentration range of 15–1000 µM for 24 h at 37 °C in a humidified atmosphere of 5% CO2. After incubation, a solution of MTT (3-[4,5-dimethylthiazol-2-yl]-2, 5-diphenyl tetrazolium bromide) at a concentration (1 mg/mL) was added to each well. After incubation at 37 °C for 4 h, 100 µL of 0.04 M HCl in isopropanol was added to each well and mixed thoroughly to dissolve the dark blue crystals. The measurement of absorbance of the solution related to the number of live cells was conducted on a TECAN Spark Microplate Reader (TECAN, Männedorf, Switzerland) at 570 nm with a reference wavelength 600 nm. All samples were tested in three independent experiments. Results were normalized to the control.
Inhibitory concentrations (IC50) represent the concentrations of the tested samples required to inhibit 50% cell proliferation and were calculated from the mean values of data from wells.

Row | Structure (SMILES) | MIC [1] | MIC [2] | MIC [3] | effect on biofilm structure and cell viability (LIVE/DEAD images) [4] | IC50 [5]
1 | Cc1[nH]cnc1C=O.Cc1[nH]cnc1C=O.O=[N+]([O-])[O-].O=[N+]([O-])[O-].[Mn+2] [Mn-imCHO-NO3] | > 1 mM and > 399 μg/ml | > 1 mM and > 399 μg/ml | > 1 mM and > 399 μg/ml | damage to the bacterial cell walls | > 1 mM
2 | O=[N+]([O-])[O-].O=[N+]([O-])[O-].OCc1ccccn1.OCc1ccccn1.[Mn+2] [Mn-pyOH-NO3] | > 1 mM and > 397 μg/ml | > 1 mM and > 397 μg/ml | > 1 mM and > 397 μg/ml | damage to the bacterial cell walls | 1 mM
